Results from ChEMBL document CHEMBL5375957, “Optimization of Novel α7 Nicotinic Acetylcholine Receptor Positive Allosteric Modulators and the Discovery of a Preclinical Development Candidate Molecule (RGH-560)” (J Med Chem, 2023).
Converted amounts (≈) assume the structure as drawn. The source made the active and inactive calls. No cut-off for these calls is given here.

What was measured:
[1] = Metabolic stability in Wistar rat liver microsome assessed as intrinsic clearance measured per mg of protein incubated for 40 mins; type: ADME; settings: liver microsomes, read-out: CLH
Mus musculus = test: Cognitive activity in scopolamine induced amnesia NMRI mouse model assessed as recognition index at 1 to 10 mg/kg, ip pretreated with compound for 30 mins followed by scopolamine induction by Y maze test; type: functional, organism-based; settings: dose 1-10 mg/kg
[2] = Metabolic stability in NMRI mouse liver microsome assessed as intrinsic clearance measured per mg of protein incubated for 40 mins; type: ADME; settings: liver microsomes, read-out: CLH
[3] = Metabolic stability in human liver microsome assessed as intrinsic clearance measured per mg of protein incubated for 40 mins; type: ADME; settings: liver microsomes, read-out: CLH
[4] = molecular target: T1, Neuronal acetylcholine receptor subunit alpha-7 (Homo sapiens, UniProt P36544); test: Positive allosteric modulator activity at human alpha7 nAChR expressed in Flp-In HEK293 cells assessed as increase in calcium influx incubated for 10 mins by fluorescence based analysis; type: cell-based
T1 sequence (P36544 whole entry): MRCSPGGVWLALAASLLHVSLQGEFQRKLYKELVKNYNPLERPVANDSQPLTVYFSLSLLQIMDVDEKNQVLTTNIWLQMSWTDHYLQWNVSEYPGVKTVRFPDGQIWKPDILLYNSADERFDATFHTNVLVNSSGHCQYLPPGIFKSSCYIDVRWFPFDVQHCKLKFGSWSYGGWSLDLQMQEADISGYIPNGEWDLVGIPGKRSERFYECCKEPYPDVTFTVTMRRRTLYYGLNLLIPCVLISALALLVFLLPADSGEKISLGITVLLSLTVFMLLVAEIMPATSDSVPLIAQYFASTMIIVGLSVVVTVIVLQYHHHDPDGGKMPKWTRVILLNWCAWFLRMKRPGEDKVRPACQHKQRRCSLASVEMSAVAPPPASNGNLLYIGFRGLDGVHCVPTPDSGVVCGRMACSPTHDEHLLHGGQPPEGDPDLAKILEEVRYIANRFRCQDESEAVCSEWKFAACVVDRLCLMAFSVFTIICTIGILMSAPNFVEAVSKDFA

[5] = Kinetic solubility of compound at pH 7.4 incubated for 2 hrs by UV-HPLC analysis; type: physicochemical; settings: buffer, read-out: Kinetic_solubility
[6] = molecular target: T1, Neuronal acetylcholine receptor subunit alpha-7; test: Positive allosteric modulator activity at human alpha7 nAChR expressed in Flp-In HEK293 cells assessed as increase in calcium influx at 10 uM incubated for 10 mins by fluorescence based analysis relative to control; type: cell-based
[7] = filed as positive allosteric modulator

Structure (SMILES) | microsomal CLint [1] [µL/min/mg] | microsomal CLint [2] [µL/min/mg] | microsomal CLint [3] [µL/min/mg] | EC50 [4] [nM] | solubility kinetic at 2 h [5] [µM] | Emax [6] [%] | Emax [6, 7] [%] | Activity (Mus musculus)
Cc1cc2cc(CNC(=O)N3CC4(CC(=O)c5ccc(F)cc5O4)C3)ccc2[nH]1 | 25 | 64 | 14 | 100 | 38.7 (≈ 15.2 µg/mL) |  |  | Active
Cn1ccc2cc(CNC(=O)N3CC4(CC(=O)c5ccccc5O4)C3)ccc21 | 46 | 52 | 24 |  | 51.5 (≈ 19.3 µg/mL) |  |  | Active
Cc1cc2cc(CNC(=O)N3CC(COc4ccc(C(F)(F)F)cc4)C3)ccc2[nH]1 | 34 | 94 | 29 | 15 | 2 (≈ 0.835 µg/mL) |  |  | 
Cc1ccc(OCC2CN(C(=O)NCc3ccc4[nH]c(C)c(C)c4c3)C2)cc1 |  |  | 323 | 490 | 13.4 (≈ 5.06 µg/mL) |  |  | 
Cc1cc2cc(CNC(=O)N3CC4(CC(=O)c5cc(F)cc(F)c5O4)C3)ccc2[nH]1 | 80 | 121 | 8 |  | 30.9 (≈ 12.7 µg/mL) |  |  | 
CCn1ccc2cc(CNC(=O)N3CC(COc4ccc(C(F)(F)F)cc4)C3)ccc21 |  |  | 28 |  | 0.2 (≈ 0.0863 µg/mL) |  | 83 | 
O=C1CC2(CN(C(=O)NCc3ccc4[nH]ccc4c3)C2)Oc2ccccc21 |  |  |  |  | 87.1 (≈ 31.5 µg/mL) |  | 58 | 
COCc1cc2cc(CNC(=O)N3CC(COc4ccc(C(F)(F)F)cc4)C3)cnc2[nH]1 | 48 |  | 43 |  | 2.9 (≈ 1.3 µg/mL) | 30 |  | 
Cc1cc2cc(CNC(=O)N3CC(COc4ccc(C(F)(F)F)cc4)C3)ccc2n1C |  |  | 41 | 70 |  |  |  | 
Cn1c(C#N)cc2cc(CNC(=O)N3CC(COc4ccc(C(F)(F)F)cc4)C3)ccc21 |  |  |  |  | 2.4 (≈ 1.06 µg/mL) | 15 |  | 
Cc1ccc(OCC2CN(C(=O)NCc3ccc4[nH]c5c(c4c3)CCCC5)C2)cc1 |  |  |  |  | 4.4 (≈ 1.78 µg/mL) | 1 |  | 
NC(=O)c1cc2cc(CNC(=O)N3CC(COc4ccc(C(F)(F)F)cc4)C3)ccc2[nH]1 |  |  |  |  | 6.9 (≈ 3.08 µg/mL) | 0 |  | 
Cn1cc(Cl)c2cc(CNC(=O)N3CC(COc4ccc(C(F)(F)F)cc4)C3)ccc21 | 96 | 140 | 30 | 200 | < 0.1 |  |  | 
Cn1cc(Cl)c2cc(CNC(=O)N3CC4(CC(=O)c5ccccc5O4)C3)ccc21 |  |  | 128 |  | 9.7 (≈ 3.98 µg/mL) |  |  | 
Cn1ccc2cc(CNC(=O)N3CC(COc4ccc(F)cc4F)C3)ccc21 |  |  | 48 | 270 | 45.5 (≈ 17.5 µg/mL) |  |  | 
Cc1nnc(-c2cc3cc(CNC(=O)N4CC(COc5ccc(C(F)(F)F)cc5)C4)ccc3[nH]2)o1 | 14 |  | 16 |  | 5.1 (≈ 2.48 µg/mL) | 1 |  | 
O=C(NCc1ccc2c(ccn2CC(F)(F)F)c1)N1CC(COc2ccc(C(F)(F)F)cc2)C1 |  |  |  |  | 0.6 (≈ 0.291 µg/mL) | 3 |  | 

Structure (SMILES) | microsomal CLint [1] [µL/min/mg] | microsomal CLint [2] [µL/min/mg] | microsomal CLint [3] [µL/min/mg] | EC50 [4] [nM] | solubility kinetic at 2 h [5] [µM] | Emax [6] [%] | Emax [6, 7] [%] | Activity (Mus musculus)
O=C(NCc1ccc2[nH]cc(Cl)c2c1)N1CC(COc2ccc(C(F)(F)F)cc2)C1 | 23 | 43 | 25 | 500 | 12 (≈ 5.25 µg/mL) |  |  | 
O=C(NCc1ccc2[nH]ccc2c1)N1CC(COc2ccc(C(F)(F)F)cc2F)C1 | 39 | 47 | 24 | 250 | 16.3 (≈ 6.87 µg/mL) |  |  | 
Cc1cc2cc(CNC(=O)N3CC4(CC(=O)c5ccccc5O4)C3)ccc2[nH]1 | 52 | 100 | 11 | 140 | 51.5 (≈ 19.3 µg/mL) |  |  | 
O=C(NCc1ccc2[nH]c(C(F)F)cc2c1)N1CC(COc2ccc(C(F)(F)F)cc2)C1 | 23 |  | 27 | 220 | 41 (≈ 18.6 µg/mL) |  |  | 
O=C(NCc1ccc2[nH]ccc2c1)N1CC(COc2ccc(C(F)(F)F)cn2)C1 | 63 | 78 | 37 | 150 | 78.1 (≈ 31.6 µg/mL) |  |  | 
Cc1[nH]c2ccc(CNC(=O)N3CC4(CC(=O)c5ccccc5O4)C3)cc2c1Cl |  |  |  | 460 | 10 (≈ 4.1 µg/mL) |  |  | 
CC(C)n1ccc2cc(CNC(=O)N3CC(COc4ccc(C(F)(F)F)cc4)C3)ccc21 |  |  |  |  | 0.9 (≈ 0.401 µg/mL) | 1 |  | 
Cc1cc2cc(CNC(=O)N3CC4(CC(=O)c5cc(F)ccc5O4)C3)ccc2[nH]1 | 34 | 51 | 18 |  | 36.4 (≈ 14.3 µg/mL) |  |  | 
Cn1cc(C#N)c2cc(CNC(=O)N3CC(COc4ccc(C(F)(F)F)cc4)C3)ccc21 |  |  | 43 | 2200 | 5.3 (≈ 2.34 µg/mL) |  |  | 
Cn1c(Cl)cc2cc(CNC(=O)N3CC(COc4ccc(C(F)(F)F)cc4)C3)ccc21 |  |  |  |  | 0.2 (≈ 0.0904 µg/mL) | 7 |  | 
Cn1ccc2cc(CNC(=O)N3CC(COc4ccc(F)cc4C#N)C3)ccc21 |  |  |  | 2800 | 31 (≈ 12.2 µg/mL) |  |  | 
O=C(NCc1ccc2[nH]ccc2c1)N1CC(COc2ccc(C(F)(F)F)nc2)C1 |  |  |  | 1100 | 86.8 (≈ 35.1 µg/mL) |  |  | 
O=C(NCc1ccc2[nH]c(C3CC3)cc2c1)N1CC(COc2ccc(C(F)(F)F)cc2)C1 | 56 |  | 25 |  | 1.9 (≈ 0.843 µg/mL) | 3 |  | 
O=C1CC2(CN(C(=O)NCc3ccc4[nH]c(Cl)cc4c3)C2)Oc2ccccc21 | 176 | 178 | 22 | 230 | 21.1 (≈ 8.35 µg/mL) |  |  | 
COCCc1cc2cc(CNC(=O)N3CC(COc4ccc(C(F)(F)F)cc4)C3)ccc2n1C |  |  |  |  | 0.1 (≈ 0.0476 µg/mL) | 0 |  | 
Cn1cc(F)c2cc(CNC(=O)N3CC(COc4ccc(C(F)(F)F)nc4)C3)ccc21 |  |  | 107 | 55 | 0.1 (≈ 0.0436 µg/mL) |  |  | 

Continued, in another order:

microsomal CLint [1] [µL/min/mg] | microsomal CLint [2] [µL/min/mg] | microsomal CLint [3] [µL/min/mg] | EC50 [4] [nM] | solubility kinetic at 2 h [5] [µM] | Emax [6] [%] | Emax [6, 7] [%] | Structure (SMILES) | Activity (Mus musculus)
 |  |  |  | 0.2 (≈ 0.0906 µg/mL) | 4 |  | Cn1c(Cl)cc2cc(CNC(=O)N3CC(COc4ccc(C(F)(F)F)cc4)C3)cnc21 | 
 |  |  | 1200 | 14.2 (≈ 6.14 µg/mL) |  |  | Cc1cn(C)c2ncc(CNC(=O)N3CC(COc4ccc(C(F)(F)F)cc4)C3)cc12 | 
53 | 57 | 34 | 360 | 61.1 (≈ 23.5 µg/mL) |  |  | Cn1ccc2cc(CNC(=O)N3CC(COc4ccc(Cl)cc4)C3)cnc21 | 
 |  |  | 3100 | 49.9 (≈ 20.2 µg/mL) |  |  | O=C(NCc1cnc2[nH]ccc2c1)N1CC(COc2ccc(C(F)(F)F)cc2)C1 | 
 |  | 97 | 390 | 7.2 (≈ 3.26 µg/mL) |  |  | Cn1cc(Cl)c2cc(CNC(=O)N3CC(COc4ccc(C(F)(F)F)cc4)C3)cnc21 | 
 |  | 61 | 80 | 0.5 (≈ 0.209 µg/mL) |  |  | Cn1ccc2cc(CNC(=O)N3CC(COc4ccc(Cl)c(Cl)c4)C3)ccc21 | 
 |  | 54 | 300 | 0.6 (≈ 0.259 µg/mL) |  |  | Cc1cc2cc(CNC(=O)N3CC(COc4ccc(C(F)(F)F)cc4)C3)cnc2n1C | 
 |  | 27 | 270 | 1.8 (≈ 0.753 µg/mL) |  |  | Cn1ccc2cc(CNC(=O)N3CC(COc4ccc(C(F)(F)F)nc4)C3)ccc21 | 
 |  | 61 | 40 | 0.9 (≈ 0.377 µg/mL) |  |  | Cn1ccc2cc(CNC(=O)N3CC(COc4ccc(C(F)(F)F)cn4)C3)ccc21 | 
38 |  | 49 |  | 20.4 (≈ 9.05 µg/mL) | 20 |  | Cn1cc(C#N)c2cc(CNC(=O)N3CC(COc4ccc(C(F)(F)F)cc4)C3)cnc21 | 
 |  |  | 590 | 9.2 (≈ 3.61 µg/mL) |  |  | Cn1ccc2cc(CNC(=O)N3CC(COc4ccc(F)c(C#N)c4)C3)ccc21 | 
 |  | 29 | 260 | 4.5 (≈ 1.97 µg/mL) |  |  | O=C(NCc1cnc2[nH]c(Cl)cc2c1)N1CC(COc2ccc(C(F)(F)F)cc2)C1 | 
 |  | 46 | 150 | 1.2 (≈ 0.462 µg/mL) |  |  | Cn1ccc2cc(CNC(=O)N3CC(COc4ccc(F)c(F)c4)C3)ccc21 | 
 |  |  |  | 0.3 (≈ 0.138 µg/mL) | 0 |  | Cn1c(C2CC2)cc2cc(CNC(=O)N3CC(COc4ccc(C(F)(F)F)cc4)C3)cnc21 | 
 |  |  | 45 | 0.2 (≈ 0.0871 µg/mL) |  |  | Cn1ccc2cc(CNC(=O)N3CC(COc4ccc(C(F)(F)F)c(F)c4)C3)ccc21 | 
